Laboratory results taken from ChEMBL document CHEMBL3886312, “Sepiapterin reductase inhibitors for the treatment of pain” (2015).

Key:
[1] = molecular target: T1, Sepiapterin reductase (Homo sapiens, UniProt P35270); test: (§1) The LC/MS assay monitors the product formation (L-biopterin) and the chromogenic assay measures OD at 420 nm.N-methoxyacetyl serotonin was used as a reference compound (positive control). […] (2) Add 40 uL enzyme/assay buffer.
[2] = molecular target: T1, Sepiapterin reductase; test: as §1, with “LC/MS assay: To screen for SPR inhibition, a biochemical assay based on LC/MS (and chromogenic) read-out has been developed. The” for “The”

T1 sequence (P35270 whole entry): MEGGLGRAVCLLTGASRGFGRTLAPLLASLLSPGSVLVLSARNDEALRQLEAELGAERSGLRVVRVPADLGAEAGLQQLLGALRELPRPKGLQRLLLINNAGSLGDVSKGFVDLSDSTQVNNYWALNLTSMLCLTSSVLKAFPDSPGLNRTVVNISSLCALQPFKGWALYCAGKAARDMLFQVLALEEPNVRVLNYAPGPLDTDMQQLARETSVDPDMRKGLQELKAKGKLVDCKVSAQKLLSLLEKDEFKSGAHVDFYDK

An IC50 [1] of 1100 nM and an IC50 [2] of 1000 nM were found for `COCC(=O)NCCc1c[nH]c2ccc(NS(C)(=O)=O)cc12` in this work.
